One molecule from BindingDB's records for patent US12344612 (Genentech, 2025) can be followed below.

A word on the Ki: it is the dissociation constant of the complex between target and ligand, obtained from inhibition or displacement. Low values mean higher affinity, high ones lower affinity.

SMILES strings stand for the structures.

This assay addresses T1, Receptor-interacting serine/threonine-protein kinase 1 (Homo sapiens, UniProt Q13546).
T1 sequence (Q13546 whole entry): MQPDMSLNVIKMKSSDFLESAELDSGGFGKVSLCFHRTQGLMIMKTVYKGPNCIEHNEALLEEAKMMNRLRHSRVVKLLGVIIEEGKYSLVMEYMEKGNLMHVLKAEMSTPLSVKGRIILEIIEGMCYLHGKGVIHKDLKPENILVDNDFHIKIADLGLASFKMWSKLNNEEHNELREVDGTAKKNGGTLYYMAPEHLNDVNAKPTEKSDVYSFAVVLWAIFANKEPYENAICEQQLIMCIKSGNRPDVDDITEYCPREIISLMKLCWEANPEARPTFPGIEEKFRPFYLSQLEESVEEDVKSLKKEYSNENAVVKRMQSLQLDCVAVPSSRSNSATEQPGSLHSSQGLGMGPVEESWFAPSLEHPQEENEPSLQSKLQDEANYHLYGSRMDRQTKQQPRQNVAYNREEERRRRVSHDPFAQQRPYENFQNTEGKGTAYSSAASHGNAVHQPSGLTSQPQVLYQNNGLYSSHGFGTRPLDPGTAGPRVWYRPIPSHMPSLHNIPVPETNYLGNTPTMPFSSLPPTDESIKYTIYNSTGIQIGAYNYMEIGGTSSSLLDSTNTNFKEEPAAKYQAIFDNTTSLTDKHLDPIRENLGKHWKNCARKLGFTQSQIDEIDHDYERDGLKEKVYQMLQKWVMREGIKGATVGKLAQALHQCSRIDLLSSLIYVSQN
The experiment in a line: Not found.
Excerpt: Not found

In turn, `O=C(c1nc2n(n1)CC[C@H]2c1ccccc1)C1CC1` (single isomer, unassigned) [US12344612, Example 10] had a Ki of 51 nM.
